Read-outs that look alike come from different tables or passages of the source.

One data set relates to HT 29. Put plainly: Growth inhibition test (MTT) for cytotoxic properties. In kind it is cell-based, human. The gist of the method: (§1)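 IC50 values come from an MTT read at 540 nm (5 h at 37 °C, 5 mg/ml MTT stock), taken on day 3 and day 6. Cells (HT 29, SW 480; 50,000 cells/ml in RPMI/10% FCS) were pre-cultured 1 day, then compound in DMSO was added.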
For the next data set, the system named is SW 480. The description is as above. It is filed as cell-based, human. The gist of the method: as §1
The test system of a further data set is B 16 F 10. Described as above. It is filed as cell-based, mouse. Conditions: Table 1b. The gist of the method:
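Cells in RPMI 1640 with 10% FCS pre-cultured 1 day at 37° C, then exposed to test substances in DMSO; growth checked after day 3 and day 6. Read-out by MTT, 5 h incubation, isopropanol solubilization, extinction at 540 nm.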

The subject of data set [1] is bone marrow parent cells of the mouse. Nature of the data set: CSF-induced proliferation of bone marrow parent cells, in vitro. Conditions: recombinant murine GM-CSF, 7 days. In kind it is cell-based. As to the method:
Bone marrow cells are flushed out of the femur of mice. 10^5 cells are incubated in McCoy SA medium (0.3% agar) together with recombinant murine GM-CSF (Genzyme; parent cell colony formation) and the substances (10^-4 to 100 μg/ml) at 37° C. and 7% CO2. 7 days later, the colonies ([…]) and clusters (17-50 cells) are counted.

Data set [2] in a line: Acute toxicity, single administration. In kind it is in vivo, nu/nu naked mice. The note with it: for acute toxicity detected: dose of 400 mg/kg; for acute toxicity detected / individual dose of the substances which can be tolerated: single administration; for Individual dose tolerated in mg/kg of mouse, i.v.: aqueous solution; for Individual dose tolerated in mg/kg of mouse, i.p.: single administration i.p., solution in dimethyl sulphoxide. As to the method:
Determination of the Acute Toxicity of Glycoconjugates of Batracyline (Single Administration)
The acute toxicity of the batracyline derivatives was determined on nu/nu naked mice.
The substances administered i.v., as aqueous solutions, and the substances administered i.p., as solutions in dimethyl sulphoxide, were injected once in concentrations of up to 400 mg of substance per kg of mouse.
The individual dose tolerated was calculated from the decrease in the weight of the animals up to 21 days after administration and from the number of animals surviving.

For data set [3], the system named is SW-480. Nature of the data set: Cleavage kinetics with cells (HPLC). Conditions: Table 2a; 37° C.; * = cleavage product is N-[D-alanyl]-batracyline.
Description: Cleavage Kinetics With Cells
(§2) 2.25 ml of PBS are incubated together with 225 μl of a cell suspension (30 mg/ml) and 25 μl of substrate stock solution (1 mg/ml in 3% dimethyl sulphoxide in PBS) at 37° C. After 1 hour and 24 hours, samples of in each case 1 ml are taken, mixed with 1 ml of ethanol and left to stand at 4° C. for 20 minutes. After centrifugation (5 minutes at 3500 rpm), 100 μl of supernatant are taken for the HPLC analysis.
Data set [4] has as its system hepatoma. Put plainly: Cleavage kinetics with cells (HPLC). The note with it: Table 2a; 37° C.; * = cleavage product is N-[D-alanyl]-batracyline.
Description: Cleavage Kinetics With Cells
as §2
The nature of data set [5]: Cleavage kinetics with human blood (HPLC). Conditions: 37° C. It is filed as in vitro ADME. The text has this:
In Vitro Investigation of the Cleavability of the Glycoconjugates
Cleavage Kinetics With Human Blood

Data set [6] concerns SW-480.
Description: Cleavage Kinetics With Cells
as §2
Data set [7] concerns hepatoma.
Description: Cleavage Kinetics With Cells
as §2
Where [8] appears, read: Table 1a, glycoconjugates of batracyline.
[9] abbreviates: Table 2a, * = cleavage product is N-[D-alanyl]-batracyline.

One may read the IC50 as the point on the concentration scale where inhibition reaches its midpoint. As for `COC1C(O)C(C)OC(Oc2ccc(NC(=S)NC(CCCCN)C(=O)NC3C=CC(C)C4CN(c5cc6c(cc5F)c(=O)c(C(=O)O)c5scc(C)n56)CC34)cc2)C1O.Cl` (mixture of isomers) [Example 14.4, N-{N^α -[O-(3-O-Methyl-β-L-fucopyranosyl)-4-hydroxy-phenylamino-thiocarbonyl]-D-lysyl}-quinolone-c, hydrochloride], the IC50 in the data set on HT 29 (Table 1b) came to 1 µM; in the data set on SW 480 (Table 1b) it was 1.5 µM; in the data set with B 16 F 10 it was 0.4 µM. Besides, in [1], the “IC50 [μg/ml] CSF-induced proliferation of bone marrow parent cells of the mouse” value is 3.6 µg/mL.

In turn, `CC(NC(=O)C(CCCCNC(=S)Nc1ccc(OC2OC(C)C(O)C(OCC(=O)[O-])C2O)cc1)NC(=S)Nc1ccc(OC2OC(C)C(O)C(OCC(=O)[O-])C2O)cc1)C(=O)Nc1ccc2nc3n(c(=O)c2c1)Cc1ccccc1-3.[Na+].[Na+]` [Example 6.12, N-{N^α,N^ε -Bis-[O-(3-O-carboxymethyl-β-L-fucosyl)-4-hydroxy-phenylamino-thiocarbonyl]-lysyl-D-alanyl}-batracyline, di-sodium salt] yielded an IC50 in the data set on HT 29 (setting [8]) of 50 µM. The IC50 with SW 480 (setting [8]) was determined as 35 µM. Besides, in data set [2], the acute toxicity detected result is on record as “no acute toxicity” and the “individual dose of the substances which can be tolerated” value is “more than 200 mg of substance per kg of mouse”. The “Individual dose tolerated in mg/kg of mouse, i.v.” value (“Individual dose tolerated … i.v.” below) in data set [2] (single administration i.v.) is listed as > 400 mg/kg of mouse. Moreover, in the data set on SW-480 [3], the “% cleavage in SW-480 1 hour” value is listed as 0% and the “% cleavage in SW-480 24 hours” value is 0%. In addition, in the data set with hepatoma [4], the “% cleavage in hepatoma 1 hour” value is 0% and the “% cleavage in hepatoma 24 hours” value was found to be 0%.

As for `CO[C@H]1[C@H](O)[C@@H](Oc2ccc(NC(=S)NCCCC[C@H](NC(=S)Nc3ccc(O[C@H]4O[C@@H](C)[C@@H](O)[C@@H](OC)[C@@H]4O)cc3)C(=O)N[C@@H](C)C(=O)NC3C=CCC4CN(c5c(F)cc6c(=O)c(C(=O)O)cn(C7CC7)c6c5Cl)CC43)cc2)O[C@@H](C)[C@H]1O` (stereo partly drawn) [Example 11.2, N-{N^α,N^ε -Bis-[O-(3-O-methyl-β-L-fucosyl)-4-hydroxy-phenylamino-thiocarbonyl]-lysyl-alanyl}-quinolone-a], the IC50 with SW 480 (Table 1b) was determined as 30 µM. Besides, in the data set with B 16 F 10, half-maximal inhibition (IC50) was put at 9 µM. In data set [5] (Table 2b), the “% cleavage in human blood 1 hour” value is recorded as 0% and the “% cleavage in human blood 24 hours” value turned out to be 0%. In addition, the “IC50 [μg/ml] CSF-induced proliferation of bone marrow parent cells of the mouse” value in data set [1] was 22.5 µg/mL. In the data set with SW-480 [6], the “% cleavage in SW-480 1 hour” value is 0% and the “% cleavage in SW-480 24 hours” value is on record as 0%. In addition, in the data set on hepatoma [7], the “% cleavage in hepatoma 1 hour” value was 0% and the “% cleavage in hepatoma 24 hours” value was 0%.

`CO[C@H]1[C@H](O)[C@@H](Oc2ccc(NC(=S)NCCCC[C@H](NC(=S)Nc3ccc(O[C@H]4O[C@@H](C)[C@@H](O)[C@@H](OC)[C@@H]4O)cc3)C(=O)NC3C=CCC4CN(c5c(F)cc6c(=O)c(C(=O)O)cn(C7CC7)c6c5Cl)CC43)cc2)O[C@@H](C)[C@H]1O` (stereo partly drawn) [Example 11.6, N-{N^α,N^ε -Bis-[O-(3-O-methyl-β-L-fucosyl)-4-hydroxy-phenylamino-thiocarbonyl]-lysyl}-quinolone-a] yielded an IC50 with HT 29 (Table 1b) of 9 µM. It took 8 µM to reach half-maximal inhibition in the data set with SW 480 (Table 1b) (IC50). In the data set on B 16 F 10, this compound returned an IC50 of 5 µM. In data set [5] (Table 2b), the “% cleavage in human blood 1 hour” value was found to be 0% and the “% cleavage in human blood 24 hours” value is listed as 11%. Also, in the data set with SW-480 [6], the “% cleavage in SW-480 1 hour” value is reported as 0% and the “% cleavage in SW-480 24 hours” value came to 8%. In addition, in the data set with hepatoma [7], the “% cleavage in hepatoma 1 hour” value stood at 0% and the “% cleavage in hepatoma 24 hours” value came out at 12%.

Take “N-{N^α -[O-(3-O-Carboxymethyl-β-L-fucosyl)-4-hydroxyphenylaminothiocarbonyl] -N^α -[acetyl]-lysyl-D-alanyl batracyline [Example 5.9]”: in the data set with HT 29 (setting [8]), the IC50 worked out at 70 µM. For the same compound, in the data set with SW 480 (setting [8]), the IC50 was 70 µM. In data set [5] (setting [9]), the “% cleavage in human blood 1 hour” value is given as 0% and the “% cleavage in human blood 24 hours” value came out at 0%. Also, in the data set on SW-480 [6], the “% cleavage in SW-480 1 hour” value is 0% and the “% cleavage in SW-480 24 hours” value was determined as 0%. In addition, in the data set with hepatoma [7], the “% cleavage in hepatoma 1 hour” value was determined as 0% and the “% cleavage in hepatoma 24 hours” value is 0%.

As to “N-{N^α -[O-(4-O-Methyl-β-L-fucosyl)-4-hydroxy-phenylamino-thiocarbonyl]-lysy l-D-alanyl}-batracyline [Example 4.4]”, in the data set on HT 29 (setting [8]), it took 25 µM to reach half-maximal inhibition (IC50). This compound returned an IC50 in the data set on SW 480 (setting [8]) of 30 µM. In addition, in data set [5] (setting [9]), the “% cleavage in human blood 1 hour” value was determined as 0% and the “% cleavage in human blood 24 hours” value is listed as 0%. Also, in the data set on SW-480 [6], the “% cleavage in SW-480 1 hour” value came to 0% and the “% cleavage in SW-480 24 hours” value was determined as 0%. Besides, in the data set with hepatoma [7], the “% cleavage in hepatoma 1 hour” value amounted to 0% and the “% cleavage in hepatoma 24 hours” value stood at 0%.

As for “N-{N^α,N^ε -Bis-[O-(3-O-methyl-β-L-fucosyl)-4-hydroxy-phenylamino-thiocarbonyl]- lysyl-D-alanyl}-batracyline [Example 6.2]”, in the data set with HT 29 (setting [8]), the 50% inhibitory concentration (IC50) worked out at 50 µM. Further, in the data set on SW 480 (setting [8]), 40 µM corresponded to half-maximal inhibition (IC50). Besides, in data set [2], the acute toxicity detected result is given as “no acute toxicity”; the “individual dose of the substances which can be tolerated” value is “more than 200 mg of substance per kg of mouse”; the “Individual dose tolerated in mg/kg of mouse, i.p.” value (from here on “Individual dose tolerated … i.p.”) is given as > 400 mg/kg of mouse. Also, in the data set on SW-480 [3], the “% cleavage in SW-480 1 hour” value is reported as 0% and the “% cleavage in SW-480 24 hours” value was found to be 0%. Moreover, in the data set with hepatoma [4], the “% cleavage in hepatoma 1 hour” value was determined as 0% and the “% cleavage in hepatoma 24 hours” value stood at 0%.

With “N-{N^ε -[O-(3-O-Carboxymethyl-β-L-fucosyl)-4-hydroxy-phenylamino-thiocarbony l]-lysyl-D-alanyl}-batracyline, sodium salt [Example 3.9]”, 55 µM corresponded to half-maximal inhibition with HT 29 (setting [8]) (IC50). Further, inhibition with SW 480 (setting [8]) was half-maximal at 40 µM (IC50). In data set [5] (setting [9]), the “% cleavage in human blood 1 hour” value is 0% and the “% cleavage in human blood 24 hours” value was determined as 54%. Moreover, in data set [2], the “individual dose of the substances which can be tolerated” value is “more than 200 mg of substance per kg of mouse” and the “Individual dose tolerated … i.p.” value is on record as 200 mg/kg of mouse. In addition, the “Individual dose tolerated … i.v.” value in [2] (single administration i.v.) was 200 mg/kg of mouse. Moreover, in the data set on SW-480 [3], the “% cleavage in SW-480 1 hour” value is 28% and the “% cleavage in SW-480 24 hours” value came out at 100%. Also, in the data set with hepatoma [4], the “% cleavage in hepatoma 1 hour” value came to 32% and the “% cleavage in hepatoma 24 hours” value was determined as 100%.

Turning to “N-{N^ε -[O-(3-O-Methyl-β-L-fucosyl)-4-hydroxy-phenylamino-thiocarbonyl]-lysy l-D-alanyl}-batracyline, trifluoroacetate [Example 3.4]”, 65 µM corresponded to half-maximal inhibition in the data set on HT 29 (setting [8]) (IC50). This compound also displayed an IC50 with SW 480 (setting [8]) of 100 µM. The “Individual dose tolerated … i.p.” value in data set [2] is given as 200 mg/kg of mouse. In data set [2] (single administration i.v.), the animals died came to 2 and the “Individual dose tolerated … i.v.” value was < 100 mg/kg of mouse. The “% cleavage in SW-480 1 hour” value in the data set on SW-480 [3] is recorded as 74%. The “% cleavage in hepatoma 1 hour” value with hepatoma [4] worked out at 98%.

These data come from patent US6271342A, “Sugar-modified cytostatics” (Bayer Aktiengesellschaft, priority 1995, dated 2001).
